Reference: PubChem BioAssay (NCI)
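Results reflect a 48-hour exposure of cells in 96-well plates to compound at five concentrations. TGI denotes the concentration required for complete inhibition of growth.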

Columns and labels:
Test in all cases: NCI tumour cell line growth inhibition, 48 h
A498 renal = test system: A498 renal
ACHN renal = test system: ACHN renal
DU-145 prostate = test system: DU-145 prostate
HOP-92 NSCLC = test system: HOP-92 NSCLC
HS 578T breast = test system: HS 578T breast
HT29 colon = test system: HT29 colon
M19-MEL melanoma = test system: M19-MEL melanoma
MCF7 breast = test system: MCF7 breast
MDA-MB-231 breast = test system: MDA-MB-231 breast
MOLT-4 leukemia = test system: MOLT-4 leukemia
NCI/ADR-RES ovarian = test system: NCI/ADR-RES ovarian
RPMI-8226 leukemia = test system: RPMI-8226 leukemia
SF-539 CNS = test system: SF-539 CNS
SK-MEL-5 melanoma = test system: SK-MEL-5 melanoma
SK-OV-3 ovarian = test system: SK-OV-3 ovarian
SN12C renal = test system: SN12C renal
SW-620 colon = test system: SW-620 colon
TK-10 renal = test system: TK-10 renal
UACC-257 melanoma = test system: UACC-257 melanoma
UO-31 renal = test system: UO-31 renal

SMILES | TGI (A498 renal) [µM] | TGI (ACHN renal) [µM] | TGI (DU-145 prostate) [µM] | TGI (HOP-92 NSCLC) [µM] | TGI (HS 578T breast) [µM] | TGI (HT29 colon) [µM] | TGI (M19-MEL melanoma) [µM] | TGI (MCF7 breast) [µM] | TGI (MDA-MB-231 breast) [µM] | TGI (MOLT-4 leukemia) [µM] | TGI (NCI/ADR-RES ovarian) [µM] | TGI (RPMI-8226 leukemia) [µM] | TGI (SF-539 CNS) [µM] | TGI (SK-MEL-5 melanoma) [µM] | TGI (SK-OV-3 ovarian) [µM] | TGI (SN12C renal) [µM] | TGI (SW-620 colon) [µM] | TGI (TK-10 renal) [µM] | TGI (UACC-257 melanoma) [µM] | TGI (UO-31 renal) [µM]
Cc1nc2ccc(N=Nc3c(O)ccc4ccccc34)cc2[nH]1 | > 92.7 | > 57.2 | > 100 | 42.8 | 61.9 | > 67.2 | 42.7 | 44.9 | 53.6 | 66.2 | 60.2 | > 82.8 | > 62.3 | > 65.1 | > 100 | > 74.9 | > 70 | > 100 | > 63.5 | > 84.8
N#Cc1ccc(Nc2cnc3cc(N)ccc3n2)cc1 |  | > 100 |  | > 100 |  | > 100 | > 100 |  |  | > 100 |  | > 100 | > 100 | > 100 | > 100 | > 100 | > 100 | > 100 | > 100 | > 100
COC1=C(C)C(=O)C2C(C1=O)C(c1ccc(OC)c(OC)c1)[C@H]2C (some centres undefined) | > 100 | > 100 |  | > 100 |  | > 100 | > 100 |  |  | > 100 |  | > 100 | > 100 | > 100 | > 100 |  | > 100 | > 100 |  | > 100
O=S1(=O)COc2ccccc2-c2ncncc21 | > 100 | > 100 |  | > 100 |  | > 100 | > 100 |  |  | > 100 |  | > 100 | > 100 | > 100 | > 100 | > 100 | > 100 | > 100 | > 100 | > 100
COc1ccc(C2Cc3cc(OC)c(OC)c(OC)c3C2=O)cc1 (centres undefined) | > 100 | > 100 |  |  |  | > 100 | > 100 |  |  | > 100 |  | > 100 | > 100 | > 100 | > 100 | > 100 | > 100 | > 100 | > 100 | > 100
CC(C)Cc1ccc(C(C)/C=C2\CCC(CN3CCOCC3)C2=O)cc1 (centres undefined) | 27 | 29.4 | 26.6 | 39.7 | > 100 | 16.7 | 28.8 | 19.9 | 4.2 | 11 | 29.3 |  | 19.8 | 24.3 | 32.8 | 21.5 | 10.8 | 14.9 | 14.7 | 21.8
COc1ccc(NC(=O)CSc2nnc(Cc3ccccc3)o2)cc1 | > 100 | > 100 |  |  |  | > 100 | > 100 |  |  | > 100 |  | > 100 | > 100 | > 100 | > 100 | > 100 | > 100 | > 100 | > 100 | > 100
COc1ccc(Cc2cc(OC)c(OC)c(OC)c2)cc1O | 76.8 | > 100 | > 100 |  | > 100 | > 90.6 | > 100 | > 100 | > 100 | > 100 | > 100 | > 100 | 0.041 | > 37 | > 80.2 | > 100 | > 100 | > 100 | > 100 | > 63.2
Cc1cc(=O)cc2sc3cc(Cl)ccc3nc1-2 | 45.4 | 30.6 |  | 57.7 |  | 43.3 | 31.2 |  |  | > 60.8 |  | > 100 | 26.1 | 12.6 | > 82.5 | 50.3 | 29.8 | 53.8 | 69.9 | 63.1
COC(=O)C(C(=O)C(=O)Nc1c(Cl)cc([N+](=O)[O-])cc1Cl)c1nc2cc(C)c(C)cc2[nH]c1=O (centres undefined) | > 100 | > 100 |  | > 100 |  | > 100 | > 100 |  |  | > 100 |  | > 100 | > 100 |  | > 100 | > 100 | > 100 | > 100 | > 100 | > 100
C=CCOC1=C2CC[C@H](O)[C@@]2(C)CCC1=O | > 100 | > 100 |  | > 100 |  | > 100 | > 100 |  |  | > 100 |  | > 100 | > 100 | > 100 | > 100 | > 100 | > 100 | > 100 | > 100 | > 100
Cn1c(=O)c2c(ncn2CCCCn2ccnc2[N+](=O)[O-])n(C)c1=O |  | > 100 |  |  |  | > 100 | > 100 |  |  | > 100 |  | > 100 | > 100 | > 100 |  | > 100 | > 100 | > 100 |  | > 100
CCCCCCCCCCCCCCCCc1c(C(=O)OC)[nH]c(=S)[nH]c1=O | > 50 | > 50 |  | 41 |  | > 50 | > 50 |  |  | > 50 |  | > 50 | > 50 | > 50 | > 50 | > 50 | > 50 | > 50 | > 50 | > 50
Cc1ccc(/C=C/C(=O)c2sc(C(N)=S)nc2C)cc1 | > 100 | > 100 |  | > 100 |  | > 100 | > 100 |  |  | > 100 |  | > 100 | > 100 | > 100 | > 100 | > 100 | > 100 | > 100 | > 100 | > 100
CC(=O)N(/N=C\c1ccc([N+](=O)[O-])cc1)c1ccccc1 | > 100 | > 100 |  | > 100 |  | > 100 | > 100 |  |  |  |  | > 100 | > 100 | > 100 | > 100 | > 100 | > 100 | > 100 | > 100 | > 100
CNC(=S)NNC(=O)c1c(C)nc2sccn12 |  | > 100 |  | > 100 |  | > 100 | > 100 |  |  | > 100 |  |  | > 100 | > 100 | > 100 | > 100 | > 100 | > 100 | > 100 | 
O=[N+]([O-])c1ccccc1S(=O)(=O)c1ccccc1[N+](=O)[O-] | > 100 | > 100 | > 100 | 91.4 | > 100 | > 100 | > 100 | > 100 | > 100 | > 100 | > 100 | > 100 | > 96.8 | > 56.2 | > 100 | > 100 | > 56.2 | > 56.2 | > 100 | > 100
O=C(CC(=O)C(=O)CC(=O)OCc1ccccc1)OCc1ccccc1 | > 100 |  |  | > 100 |  | > 100 | > 100 |  |  | > 100 |  | > 100 | > 100 | > 100 | > 100 | > 100 | > 100 | > 100 |  | 75.7
CC(C)CC(=O)N1CCN(C(=O)CC(C)C)c2ccccc21 | > 100 | > 100 |  | > 100 |  | > 100 | > 100 |  |  | > 100 |  | > 100 | > 100 |  | > 100 |  | > 100 | > 100 | > 100 | > 100
O=C1CCCCC1C1(O)C(=O)Nc2cc(F)ccc21 (centres undefined) | > 100 | > 100 |  | > 100 |  | > 100 | > 100 |  |  | > 100 |  | > 100 | > 100 | > 100 | > 100 | > 100 | > 100 | > 100 | > 100 | > 100
Cc1cc(=O)[nH]c(CNC(=O)c2cccc3ccccc23)n1 | > 100 | > 100 |  | > 100 |  | > 100 | > 100 |  |  | > 100 |  |  | > 100 | > 100 | > 100 | > 100 | > 100 | > 100 | > 100 | > 100
COC(=O)C(CCC1(C)OCCO1)C(C)=O (centres undefined) | > 100 | > 100 |  |  |  | > 100 | > 100 |  |  | > 100 |  |  | > 100 | > 100 | > 100 | > 100 | > 100 | > 100 | > 100 | > 100
CCN(CC)CC(O)CNc1ccc(NCC(O)CCl)c2c1C(=O)c1ccccc1C2=O (centres undefined) | 21 | 16.3 | 29.3 | 18.2 | 31 | 16.5 | 22.1 | 15.3 | 27.8 | 8.82 | 17.3 | 26.6 | 19.1 | 22.1 | 39.1 | 19.7 | 14.4 | 25.5 | 16 | 17.9
CC(C)=C1C(=O)C[C@]2(C)C/C=C(\C)CC/C=C(\C)CC[C@@H]12 | 47.9 | 16.4 | > 50 | 19.3 | 28 | 16.4 |  | 30.4 | 15.4 | 18.2 | 14.8 | 36.9 | 15.8 | 15.5 | > 50 | 17.3 | 17.3 | 22.2 | 25.4 | 15.1
CSc1nc2nc(C)c(C)nc2c(=O)[nH]1 | > 100 | > 100 |  | > 100 |  | > 100 | > 100 |  |  | > 100 |  | > 100 |  | > 100 | > 100 | > 100 | > 100 | > 100 | > 100 | > 100
C/C=C1/CN2CCC34C5=CC(=O)C(c6cc7c(cc6OC)N(C)C6=C(C(=O)OC)CC8(CC)CCCN9CCC67C98)=CC5=NC23CCC1C4C(=O)OC (centres undefined) | 30.2 | 29.1 | 37.2 | 20.8 | 25.6 | 28 |  | 22.8 | 23.5 | 6.94 | 54.3 | 16.6 | 28 | 28.5 | 30.9 | 27.7 | 21.8 | 30.9 | 27.1 | 24.6
